Tests used:
Substance-P receptor [1] = target: Substance-P receptor (Homo sapiens, UniProt P25103, H197A); experiment: Binding affinity towards human mutant NK-1 receptor in which His-197 has been replaced by alanine (H197A)
Substance-P receptor [2] = target: Substance-P receptor (Homo sapiens, UniProt P25103); experiment: Binding affinity towards wild type human Wild-type tachykinin receptor 1 expressed in Chinese hamster ovary cells; assay type: cell-based
Chain of Substance-P receptor (Homo sapiens, UniProt P25103) (P25103 whole entry): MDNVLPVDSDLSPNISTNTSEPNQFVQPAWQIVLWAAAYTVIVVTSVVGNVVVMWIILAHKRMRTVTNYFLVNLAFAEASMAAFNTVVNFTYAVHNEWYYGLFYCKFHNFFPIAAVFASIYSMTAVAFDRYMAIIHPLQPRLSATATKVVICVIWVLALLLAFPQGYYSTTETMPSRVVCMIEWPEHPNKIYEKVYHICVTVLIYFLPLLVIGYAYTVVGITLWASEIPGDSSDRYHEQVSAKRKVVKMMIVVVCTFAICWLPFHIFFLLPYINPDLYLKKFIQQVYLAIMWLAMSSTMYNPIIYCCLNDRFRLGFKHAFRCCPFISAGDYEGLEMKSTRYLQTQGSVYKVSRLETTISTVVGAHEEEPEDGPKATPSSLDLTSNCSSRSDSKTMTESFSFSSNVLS

Chain of Substance-P receptor (Homo sapiens, UniProt P25103, H197A) (P25103 whole entry H197A): as the sequence (P25103 whole entry) above, with H197A counted along it

SMILES | IC50 (Substance-P receptor [1]) [nM] | IC50 (Substance-P receptor [2]) [nM]
FC(F)(F)c1cc(CO[C@H]2C3CCN(CC3)[C@H]2Cc2ccccc2)cc(C(F)(F)F)c1 | 500 | 197
Cc1cc(C)cc(CO[C@H]2C3CCN(CC3)[C@H]2Cc2ccccc2)c1 | 845 | 292
Cc1cc(C)cc(CO[C@H]2C3CCN(CC3)[C@H]2C(c2ccccc2)c2ccccc2)c1 [L-706125] | 196 | 2
FC(F)(F)c1cc(CO[C@H]2C3CCN(CC3)[C@H]2C(c2ccccc2)c2ccccc2)cc(C(F)(F)F)c1 [L-709210] | 330 | 2
